# Source: publication PMC6028563, “Probing Substituents in the 1- and 3-Position: Tetrahydropyrazino-Annelated Water-Soluble Xanthine Derivatives as Multi-Target Drugs With Potent Adenosine Receptor Antagonistic Activity” (Frontiers in Chemistry, 2018)
# Assays:
# rat A1 AR = biological target: T1, rat A1 AR (Rattus norvegicus, UniProt P25099); assay: Radioligand binding assay at rat A1 AR (rat brain cortex) vs. [^3H]CCPA; settings: rat (r); rat brain cortex; n = 3
# T1 construct: A1 ARs of rat brain cortical membrane; from tissue; host or cells: rat brain cortex membranes
# T1 sequence (P25099 1-326): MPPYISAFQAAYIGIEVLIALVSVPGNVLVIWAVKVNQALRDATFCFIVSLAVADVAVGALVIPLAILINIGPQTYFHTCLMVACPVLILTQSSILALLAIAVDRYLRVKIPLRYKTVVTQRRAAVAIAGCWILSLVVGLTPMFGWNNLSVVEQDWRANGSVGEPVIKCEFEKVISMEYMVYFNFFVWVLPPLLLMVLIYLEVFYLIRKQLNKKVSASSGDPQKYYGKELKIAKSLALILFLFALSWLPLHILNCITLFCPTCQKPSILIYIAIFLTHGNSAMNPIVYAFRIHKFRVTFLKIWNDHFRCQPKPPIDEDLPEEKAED
# How it was run: (§1)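 Competition binding; rat A1: brain cortex membranes; rat A2A: brain striatum membranes; human A1/A2A/A2B/A3: membranes from CHO cells each expressing one human subtype. Affinity only, no functional testing.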
# human A1 AR = biological target: T2, human A1 AR (Homo sapiens, UniProt P30542); assay: Radioligand binding assay at human A1 AR vs. [^3H]CCPA; settings: for Ki: human (h), CHO cell membranes, n = 3; for selectivity for the human A1 vs. the human A2A AR: ratio of Ki values, human receptors
# T2 construct: expressed in transfected cells; host or cells: CHO cells
# T2 sequence (P30542 1-326): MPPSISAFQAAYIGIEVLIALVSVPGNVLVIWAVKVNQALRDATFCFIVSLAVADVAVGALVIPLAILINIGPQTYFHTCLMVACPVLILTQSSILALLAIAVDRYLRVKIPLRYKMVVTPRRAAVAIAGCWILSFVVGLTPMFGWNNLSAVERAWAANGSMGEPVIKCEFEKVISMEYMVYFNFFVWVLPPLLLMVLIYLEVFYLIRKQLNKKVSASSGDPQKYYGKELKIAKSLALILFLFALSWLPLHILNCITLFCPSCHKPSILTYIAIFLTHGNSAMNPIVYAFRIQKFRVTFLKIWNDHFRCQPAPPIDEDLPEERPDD
# How it was run: as §1
# recombinant human MAO-B = biological target: T3, recombinant human MAO-B (Homo sapiens, UniProt P27338); assay: Monoamine oxidase assay (Amplex Red), MAO-B; type: biochemical; settings: for IC50: n = 3, read-out: IC50 ± SEM, Human MAO-B; for inhibition at 10 µM: at 10,000 nM (10 μM), read-out: % inhibition at indicated concentration, Human MAO-B
# T3 construct: purchased Sigma-Aldrich M7441; host or cells: baculovirus-infected insect cells
# T3 sequence (P27338 1-520): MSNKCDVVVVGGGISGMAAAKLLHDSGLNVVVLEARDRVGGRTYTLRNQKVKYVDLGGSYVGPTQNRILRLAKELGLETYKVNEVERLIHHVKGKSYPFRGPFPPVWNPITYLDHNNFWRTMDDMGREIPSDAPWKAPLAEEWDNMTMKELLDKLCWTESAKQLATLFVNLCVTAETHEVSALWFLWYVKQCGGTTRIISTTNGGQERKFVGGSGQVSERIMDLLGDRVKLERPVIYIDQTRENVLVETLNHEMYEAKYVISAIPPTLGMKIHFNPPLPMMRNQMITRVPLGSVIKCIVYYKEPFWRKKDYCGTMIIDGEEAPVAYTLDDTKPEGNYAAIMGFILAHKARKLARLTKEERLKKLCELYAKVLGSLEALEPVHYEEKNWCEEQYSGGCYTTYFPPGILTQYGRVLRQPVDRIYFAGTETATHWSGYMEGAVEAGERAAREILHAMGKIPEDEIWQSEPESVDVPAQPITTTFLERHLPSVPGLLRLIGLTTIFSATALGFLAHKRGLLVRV
# How it was run: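 Inhibition was measured with an Amplex Red monoamine oxidase assay, using human MAO-A and MAO-B produced recombinantly in baculovirus-infected insect cells. For rat MAO-B, liver mitochondria-enriched fractions from male Sprague Dawley rats served as enzyme source.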
# rat A2A AR = biological target: T4, rat A2A AR (Rattus norvegicus, UniProt P30543); assay: Radioligand binding assay at rat A2A AR (rat brain striatum) vs. [^3H]MSX-2; settings: rat (r); for % inhibition of radioligand binding at indicated concentration, A2A vs. [^3H]MSX-2: at 1,000 nM; for Ki: rat brain striatum, n = 3, read-out: Ki ± SEM, A2A vs. [^3H]MSX-2
# T4 construct: A2A ARs of rat brain striatal membrane preparations; from tissue; host or cells: rat brain striatum membranes
# T4 sequence (P30543 whole entry): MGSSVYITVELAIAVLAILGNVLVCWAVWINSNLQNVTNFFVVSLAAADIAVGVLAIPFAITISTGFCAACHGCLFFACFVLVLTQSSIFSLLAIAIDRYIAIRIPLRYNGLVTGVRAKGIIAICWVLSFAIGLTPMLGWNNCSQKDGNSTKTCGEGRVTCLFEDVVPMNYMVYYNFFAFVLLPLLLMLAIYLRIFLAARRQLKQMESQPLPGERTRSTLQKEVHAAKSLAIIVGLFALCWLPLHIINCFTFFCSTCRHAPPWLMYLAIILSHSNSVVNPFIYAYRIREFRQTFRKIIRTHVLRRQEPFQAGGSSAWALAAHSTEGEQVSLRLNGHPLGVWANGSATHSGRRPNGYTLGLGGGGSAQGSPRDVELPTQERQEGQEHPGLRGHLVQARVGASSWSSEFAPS
# How it was run: as §1
# human A3 AR = biological target: T5, human A3 AR (Homo sapiens, UniProt P0DMS8); assay: Radioligand binding assay at human A3 AR vs. [^3H]PSB-11; settings: for Ki: CHO cell membranes, n = 2 (n = 3 where marked a), read-out: Ki ± SEM, A3 vs. [^3H]PSB-11; for inhibition at 10 µM: at 10,000 nM, read-out: % inhibition of radioligand binding at indicated concentration, A3 vs. [^3H]PSB-11
# T5 construct: expressed in transfected cells; host or cells: CHO cells
# T5 sequence (P0DMS8 1-318): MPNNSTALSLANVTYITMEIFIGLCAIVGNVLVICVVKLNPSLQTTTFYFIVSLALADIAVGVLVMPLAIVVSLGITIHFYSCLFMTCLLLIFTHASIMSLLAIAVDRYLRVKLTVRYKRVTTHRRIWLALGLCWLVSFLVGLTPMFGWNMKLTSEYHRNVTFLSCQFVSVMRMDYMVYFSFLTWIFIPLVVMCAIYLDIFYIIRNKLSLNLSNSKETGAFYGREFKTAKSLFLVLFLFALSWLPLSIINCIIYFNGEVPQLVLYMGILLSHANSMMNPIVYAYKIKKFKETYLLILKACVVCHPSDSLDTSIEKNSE
# How it was run: as §1
Compound,Ki (rat A1 AR) [nM],Ki (human A1 AR) [nM],IC50 (recombinant human MAO-B) [nM],"% inhibition of radioligand binding at indicated concentration, A2A vs. [^3H]MSX-2 (rat A2A AR) [%]",Ki (rat A2A AR) [nM],Ki (human A3 AR) [nM],inhibition at 10 µM (recombinant human MAO-B) [%],inhibition at 10 µM (human A3 AR) [%],selectivity for the human A1 vs. the human A2A AR (human A1 AR) [fold]
"CCn1c(=O)c2c(nc3n2CCN(Cc2ccc(Br)cc2)C3)n(C)c1=O [Compound 14c, 8-(4-bromobenzyl)-3-ethyl-1-methyl-6,7,8,9-tetrahydropyrazino[2,1-f]purine-2,4(1H,3H)-dione]",156 ± 21,1350,1630,35,> 1000,9390,,,
"CCn1c(=O)c2c(nc3n2CCN(Cc2cccc(C(F)(F)F)c2F)C3)n(C)c1=O [Compound 14l, 3-ethyl-8-(2-fluoro-3-(trifluoromethyl)benzyl)-1-methyl-6,7,8,9-tetrahydropyrazino[2,1-f]purine-2,4(1H,3H)-dione]",236 ± 57,495 ± 80,< 10000,,667 ± 68,> 10000,65,29,
"CCn1c(=O)c2c(nc3n2CCN(Cc2ccc(F)c(Br)c2)C3)n(CC)c1=O [Compound 15k, 8-(3-bromo-4-fluorobenzyl)-1,3-diethyl-6,7,8,9-tetrahydropyrazino[2,1-f]purine-2,4(1H,3H)-dione]",270 ± 60,362 ± 98,< 10000,30,> 1000,7190,63,,
"C#CCn1c(=O)c2c(nc3n2CCN(Cc2ccc(Cl)c(Cl)c2)C3)n(C)c1=O [Compound 19a, 8-(3,4-dichlorobenzyl)-1-methyl-3-propargyl-6,7,8,9-tetrahydropyrazino[2,1-f]purine-2,4(1H,3H)-dione]",292 ± 21,967 ± 211,679 ± 17,,642 ± 194,5630,,,
"CCn1c(=O)n(C)c(=O)c2c1nc1n2CCN(Cc2ccc(Cl)c(Cl)c2)C1 [Compound 16a, 8-(3,4-dichlorobenzyl)-1-ethyl-3-methyl-6,7,8,9-tetrahydropyrazino[2,1-f]purine-2,4(1H,3H)-dione]",236 ± 23,396 ± 154,106 ± 10,,1100,> 10000,,19,
"CCn1c(=O)c2c(nc3n2CCN(Cc2ccccc2Br)C3)n(C)c1=O [Compound 14a, 8-(2-bromobenzyl)-3-ethyl-1-methyl-6,7,8,9-tetrahydropyrazino[2,1-f]purine-2,4(1H,3H)-dione]",123 ± 34,41.7 ± 8.3,> 10000,,408 ± 90,> 10000,37,36,> 10
"CCn1c(=O)c2c(nc3n2CCN(Cc2cc(C(F)(F)F)ccc2F)C3)n(CC)c1=O [Compound 15j, 1,3-diethyl-8-(2-fluoro-5-(trifluoromethyl)benzyl)-6,7,8,9-tetrahydropyrazino[2,1-f]purine-2,4(1H,3H)-dione]",124 ± 21,39.4 ± 7.4,< 10000,,600 ± 54,> 10000,58,25,
"C#CCn1c(=O)c2c(nc3n2CCN(c2cccc(OC)c2)C3)n(CC)c1=O [Compound 20c, 1-ethyl-8-(3-methoxyphenyl)-3-propargyl-6,7,8,9-tetrahydropyrazino[2,1-f]purine-2,4(1H,3H)-dione]",328 ± 70,946 ± 166,≤ 10000,,250 ± 80,7160,> 50,,

# The next compounds have a lower Ki (rat A1 AR) than those just listed; values first:
Ki (rat A1 AR) [nM],Ki (human A1 AR) [nM],IC50 (recombinant human MAO-B) [nM],"% inhibition of radioligand binding at indicated concentration, A2A vs. [^3H]MSX-2 (rat A2A AR) [%]",Ki (rat A2A AR) [nM],Ki (human A3 AR) [nM],inhibition at 10 µM (recombinant human MAO-B) [%],inhibition at 10 µM (human A3 AR) [%],selectivity for the human A1 vs. the human A2A AR (human A1 AR) [fold],Compound
114 ± 15,244 ± 74,≥ 10000,20,> 1000,8760,49,,,"CCn1c(=O)c2c(nc3n2CCN(Cc2ccccc2C(F)(F)F)C3)n(C)c1=O [Compound 14d, 3-ethyl-1-methyl-8-(2-(trifluoromethyl)benzyl)-6,7,8,9-tetrahydropyrazino[2,1-f]purine-2,4(1H,3H)-dione]"
76.2 ± 9,55.9 ± 8.3,1430,,592 ± 28,> 10000,,35,16,"CCn1c(=O)c2c(nc3n2CCN(Cc2cc(C(F)(F)F)ccc2Cl)C3)n(C)c1=O [Compound 14m, 8-(2-chloro-5-(trifluoromethyl)benzyl)-3-ethyl-1-methyl-6,7,8,9-tetrahydropyrazino[2,1-f]purine-2,4(1H,3H)-dione]"
49.3 ± 8,143 ± 16,136 ± 5,,1490,> 10000,,23,,"CCn1c(=O)n(C)c(=O)c2c1nc1n2CCN(Cc2cc(Cl)cc(Cl)c2)C1 [Compound 16b, 8-(3,5-dichlorobenzyl)-1-ethyl-3-methyl-6,7,8,9-tetrahydropyrazino[2,1-f]purine-2,4(1H,3H)-dione]"
49.1 ± 6.2,156 ± 49,< 10000,,708 ± 25,> 10000,> 50,38,,"CCn1c(=O)c2c(nc3n2CCN(Cc2cccc(C(F)(F)F)c2)C3)n(C)c1=O [Compound 14e, 3-ethyl-1-methyl-8-(3-(trifluoromethyl)benzyl)-6,7,8,9-tetrahydropyrazino[2,1-f]purine-2,4(1H,3H)-dione]"
36.9 ± 6.1,391 ± 77,3980,,617 ± 114,> 10000,,42,,"CCn1c(=O)c2c(nc3n2CCN(Cc2cc(Cl)ccc2Cl)C3)n(C)c1=O [Compound 14j, 8-(2,5-dichlorobenzyl)-3-ethyl-1-dimethyl-6,7,8,9-tetrahydropyrazino[2,1-f]purine-2,4(1H,3H)-dione]"
33.5 ± 5.6,75.4 ± 16.1,1310,,756 ± 46,13300,,,,"CCn1c(=O)c2c(nc3n2CCN(Cc2cc(Br)ccc2F)C3)n(CC)c1=O [Compound 15l, 8-(5-bromo-2-fluorobenzyl)-1,3-diethyl-6,7,8,9-tetrahydropyrazino[2,1-f]purine-2,4(1H,3H)-dione]"
28.8 ± 1.5,70.7 ± 12.3,> 10000,,1140,> 10000,34,39,,"CCn1c(=O)c2c(nc3n2CCN(Cc2cccc(Br)c2)C3)n(C)c1=O [Compound 14b, 8-(3-bromobenzyl)-3-ethyl-1-methyl-6,7,8,9-tetrahydropyrazino[2,1-f]purine-2,4(1H,3H)-dione]"
